Consider one compound from US11135229B2, “Cat and dog sterilization by estrogenic compounds” (Insigna Inc., priority 2018, dated 2021).

Series [1] has as its system premature male and female rats. It counts as in vivo.
For series [2] the following is noted: rat, in vivo, sc.
Method: Hormonal measurement. Blood was collected from the tail vein or by cardiac puncture. The blood was centrifuged at 2000×g for 10 minutes; then serum was collected and preserved at −20° C. until further analyses. Serum estradiol concentrations were measured by using ELISA kits (DRG EIA4399) with a reportable range of 1.4-200 μg/ml.
A silicone capsule containing 17β-estradiol 3-benzoate (EB, Sigma E8515) was used as a device to elevate blood 17β-estradiol (E2) concentration to a supra-physiological level. Once implanted subcutaneously, the silicone capsule with EB (called eSpay) releases EB for an extended period of time. […] Therefore, EB that contained 300 μg of EB (herein EB300) was made by dissolving 300 μg of EB in 5 μl of sesame oil (Sigma S3547), and it was inserted into a silicone tube (Dow Corning 508-005) that was later closed with silicone sealant (Factor II, Inc. Medical Adhesive A-100). The capsule was kept at room temperature until use. The EB300 capsule was approximately 8 mm long and 2.16 mm in diameter. […]
The efficacy of the EB300 capsule as a device to elevate E2 levels in its recipient was tested after implanting it on the day of birth (post-natal day 0, PND 0). Serum and hypothalami were collected at PND 1, 2, 3, 4, 7, 10, 21, and 30, and E2 concentrations were measured.
Setting [3] is: premature male rats, capsule injected subcutaneously.

As to `C[C@]12CC[C@@H]3c4ccc(OC(=O)c5ccccc5)cc4CC[C@H]3[C@@H]1CC[C@@H]2O` [EB, 17β-Estradiol 3-benzoate], in series [1] (premature female rats, capsule injected), the Female reproductive system entry is “preventing the females from undergoing menstrual cycling and from producing ova”. Also, in series [1] (setting [3]), the “Sterility of male rats” value is “permanently sterile”; the “Testicular testosterone and sperm production” value is on record as “did not produce testosterone or sperm”. In series [1] (rat, in vivo), the Death or sickness entry is recorded as “no subject animal died or exhibited sickness”; the “Immune system, liver and kidney function examination” value is given as “no clinical pathology”. For the same compound, the “Period of sustained, high blood E2 level” value in series [2] is recorded as “about three weeks”.
